From patent US20110224133A1 (University of Southern California, priority 2008, published 2011)
“Also recorded” adds a separate entry of the source. Ends that are not written are not given here. Peptide text beside a SMILES is read from it. * marks the point of attachment. Cbz = O=C(OCc1ccccc1)*; CH2F = FC*

How the values were obtained:
[1] = test system: Beclin1; assay: Beclin1 siRNA knockdown in BCBL1 cells; type: cell-based, human
Description: For panel B, BCBL1 cells were transfected with control siRNA or Beclin1 siRNA and treated with or without rapamycin for 5 days.

[2] = test system: KSHV-infected BCBL1 cells; assay: Rapamycin-induced growth suppression and death of BCBL1 cells (cell counts, scanning EM); type: cell-based, human; details: 6 days, over 100 dead cells examined
Description: The effect of vFLIP on autophagy was tested in a KSHV-infected BCBL1 cell line.

[3] = test system: BCBL1 cells; details: 50 μM zVAD
Description: For panels B-C, TREX-BCBL-Vector and TREX-BCBL-vFLIP cells were mock-treated or treated with 50 μM zVAD (B) or 50 nM rapamycin (C) for indicated amounts of time (days). A BC Z2 CS Analyzer was used to determine the cell numbers (left) and cell death levels (as a percentage) at day 6 (right).
Trypan blue staining and a Beckman Coulter Z2 Particle Count and Size analyzer were used to determine cell death (as a percentage) at day 5.

[4] = molecular target: T1, Atg3 (Homo sapiens, UniProt Q9NT62); assay: Co-immunoprecipitation and GST pulldown with Atg3 in HEK293T cells; type: binding; details: HEK293T cells, 48 hr post-transfection
T1 construct: expressed in transfected cells; host or cells: HEK293T
T1 sequence (Q9NT62 whole entry): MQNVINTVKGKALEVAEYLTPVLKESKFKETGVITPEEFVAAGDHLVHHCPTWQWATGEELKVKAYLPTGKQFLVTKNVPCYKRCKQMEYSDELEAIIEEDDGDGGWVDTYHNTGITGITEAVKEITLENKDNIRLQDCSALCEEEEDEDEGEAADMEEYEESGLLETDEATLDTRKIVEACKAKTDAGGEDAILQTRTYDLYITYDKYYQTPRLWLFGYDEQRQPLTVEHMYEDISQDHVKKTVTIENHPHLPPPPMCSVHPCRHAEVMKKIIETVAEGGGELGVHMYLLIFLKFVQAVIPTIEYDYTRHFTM
Description: (§1) For panel A, at 48 hr post-transfection with Flag-vFLIP and/or GFP-Atg3 (left) or Flag-vFLIP and/or GST-Atg3 (middle), HEK293T cells were used for immunoprecipitation with αFlag, αGFP, or GST pulldown, followed by immunoblotting with the indicated antibodies. For panel A (right), HEK293T cells transfected with FIag-vFLIP were used for immunoprecipitation with mouse IgG or αFlag, followed by immunoblotting with αAtg3. Panel B (top) depicts a schematic diagram of human Atg3. N,N-terminus; FR, flexible region; C, C-terminus. […] Panel C (top) depicts a schematic diagram of KSHV vFLIP. […] For panel F, NIH3T3-Vector and NIH3T3-vFLIP cells were treated with 2 nM rapamycin for 12 hr and used for IP with αAtg3, followed by immunoblotting with αLC3. In panels A-F, whole cell lysates (WCLs) were used for immunoblotting with the indicated antibodies to show expression.
(§2) WCLs were used for immunoblotting with αFlag or αGST. […] WCLs were used for immunoblotting with αFlag or αGST.
(§3) The ability of FLIP to bind to Atg3 was evaluated by co-immunoprecipitation assay. HEK293T cells were transfected with Flag-vFLIP and/or GFP-Atg3 or Flag-vFLIP and/or GST-Atg3, and at 48 hr post-transfection, cells were harvested and lysed in an NP40 buffer supplemented with complete protease inhibitor cocktail (Roche). After pre-clearing with protein A/G agarose beads for 1 hr at 4° C., whole-cell lysates were used for immunoprecipitation with αFlag, αGFP, or GST. Generally, 1-4 μg of the antibody was added to 1 ml of the cell lysate and incubated at 4° C. for 8 to 12 hr. The immunoprecipitates were then washed extensively with a lysis buffer and eluted by boiling them with an SDS loading buffer for 5 min. Following immunoprecipitation, samples were treated to immunoblot using αAtg3 (1:500) (Novus).
(§4) The overall structure of yeast Atg3 has a unique hammer-like shape with the N-terminal and C-terminal regions discretely responsible for Atg7 and Atg8 (equivalent to mammalian LC3) binding, respectively. (Yamada et al. (2007) J. Biol. Chem. 282:8036-8043). Based on the structure of yeast Atg3, human Atg3 deletion mutants fused with a GST mammalian expression vector were constructed: GST-Atg31-93, GST-Atg3193-268, GST-Atg3268-315, and GST-Atg3193-315.

[5] = test system: TREX-BCBL-Vector cells; assay: Cell death (BC Z2 CS analyzer) in peptide-treated TREX-BCBL cells; details: identical conditions, 30 or 50 μM peptide
Description: Subsequently, autophagy was quantified as means (±SD) of the combined results from three independent experiments. 2 μM rapamycin treatment was included as a control. For panels B (right), TREX-BCBL-Vector and TREX-BCBL-vFLIP cells were treated with Doxycycline for 24 hr, followed by incubation with 0, 30, or 50 μM of TAT only, the K-α2, or the K-α4 peptide (top), or TAT only, the C-α2, or the C-α4 peptide (bottom) for an additional 12 hr and a BC Z2 CS analyzer used to determine cell death (as a percentage). […] For panel G, various human lymphoma cells were treated with 0, 30, or 50 μM of the K-α2 peptide (left) or the K-α4 peptide (right) for 12 hr and cell death (as a percentage) was determined using a BC Z2 CS Analyzer. For panel H, KSHV-infected BCBL1 cells were incubated with various combinations of rapamycin (25 nM), the K-α2 peptide (20 μM), and the K-α4 peptide (20 μM). A BC Z2 CS Analyzer was used to determine cell numbers (left) and cell death at 6 days (right).
Cells treated with 2 μM rapamycin treatment were included as controls. For panel C, KSHV-infected BCBL1 cells were treated with TAT only, K-α2, K-α2m, K-α4, or K-α4m (30 or 50 μM) for 24 hr. A BC Z2 CS Analyzer was used to determine cell death (as a percentage).

[6] = test system: TREX-BCBL-Vector cells; assay: GFP-LC3 puncta autophagy assay in peptide-treated TREX-BCBL cells; details: 30 or 50 μM peptide, 12 hr, 2 μM rapamycin as comparison
[7] = test system: mTor kinase activity; assay: Immunoblot of p70S6K and S6 phosphorylation in BCBL1 cells; type: cell-based, human; details: 12 hr, 2 μM rapamycin or 30 μM peptide
Description: WCLs were used for immunoblotting with αp70S6K, αphospho-specific p70S6K, αphospho-specific S6, or αactin. […] WCLs were used for immunoblotting with αFlag or αGST.
Levels of phosphorylation of p70S6K and ribosomal protein S6 in BCBL1 cells were evaluated by immunoblotting with α-p70S6K, αphospho-specific p70S6K, αphospho-specific S6, or αactin.

[8] = test system: LC3-II; assay: Immunoblotting with αLC3 of peptide-treated BCBL1 cells; details: 30 μM each, 12 hr
Description: For panel E, TREX-BCBL-Vector and TREX-BCBL-vFLIP cells were treated with the K-α and the K-α4 (30 μM each) peptide for 12 hr, followed by immunoblotting with αLC3 and αactin.
The K-α2 and K-α4 peptides contained KSHV vFLIP aa20-29 and aa128-139 regions, respectively, as retro-inverso versions to circumvent the proteolytic degradation (FIG. 10 and FIG. 11A). […] Peptide-treated TREX-BCBL-Vector and TREX-BCBL-vFLIP cells were subjected to immunoblotting with αLC3 and αactin.

[9] = molecular target: T2, GST-Atg3 193-315 (C-terminal region) (human, UniProt Q9NT62 193-314); assay: GST pulldown with GST-Atg3, Nt and Ct, immunoblot αFlag
T2 construct: range 193-315; also called GST-Atg3 C-terminal region (Ct); not shown: N-terminal GST tag
T2 sequence (Q9NT62 193-314 limits assumed): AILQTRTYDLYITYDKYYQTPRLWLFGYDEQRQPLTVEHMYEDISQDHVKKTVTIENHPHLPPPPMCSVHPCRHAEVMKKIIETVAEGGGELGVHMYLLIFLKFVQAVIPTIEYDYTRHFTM

[10] = molecular target: T3, GST-Atg3 (human Atg3, full length) (human, UniProt Q9NT62 1-314); assay: GST pulldown from HEK293T cells, immunoblot αFlag
T3 construct: also called GST-tagged hATG3; full-length Atg3; not shown: N-terminal GST tag
T3 sequence (Q9NT62 whole entry): as the sequence (Q9NT62 whole entry) above

[11] = test system: NIH3T3 cells; assay: GFP-LC3 autophagy assay in NIH3T3 cells expressing FLIP; type: cell-based, murine; details: ectopic expression in NIH3T3 cells; Hank's solution 4 hr or 2 μM rapamycin 3 hr
[12] = test system: LC3-II; assay: Anti-LC3 immunoblotting of starved NIH3T3 cells expressing FLIP; type: cell-based, murine; details: starvation, Hank's solution 4 hr
Description: The arrows indicate autophagosomes.
During autophagy, an LC3 precursor (LC3-I) undergoes cleavage and lipidation to yield its processed form (LC3-II) (Mizushima et al. (2008) Nature 451:1069-1075). Immunoblotting was performed with an antibody against LC3 to further measure autophagic activity. […] Polypeptides were resolved by SDS-polyacrylamide gel electrophoresis (PAGE) and transferred to a PVDF membrane (Bio-Rad). […] The proteins were visualized by a chemiluminescence reagent (Pierce) and detected by a Fuji Phosphor Imager. […] Finally, the ability of FLIP to block autophagy in multiple cell types was evaluated.

[13] = test system: Atg3; assay: Co-immunoprecipitation and GST pulldown with Atg3 in HEK293T cells; type: binding, human; details: GST-Atg3 deletion mutants, GST pulldown
Description: as §1, §2, §3, §4

In the case of “5′AAGAUCCUGGACCGUGUCACC3′ [Beclin1 siRNA]”, the “endogenous Beclin1 expression” value [1] is reported as “significantly reduced endogenous Beclin1 expression” and the rapamycin-induced autophagic death ([1]; rapamycin, day 5) is reported as “attenuated rapamycin-induced autophagic death”.

CO[C@H]1C[C@@H]2CC[C@@H](C)[C@@](O)(O2)C(=O)C(=O)N2CCCC[C@H]2C(=O)O[C@H]([C@H](C)C[C@@H]2CC[C@@H](O)[C@H](OC)C2)CC(=O)[C@H](C)/C=C(\C)[C@@H](O)[C@@H](OC)C(=O)[C@H](C)C[C@H](C)/C=C/C=C/C=C/1C [rapamycin] was tested, and the “dead cells with characteristics of autophagic death (EM)” value [2] was “approximately 60%”.

In the case of COC(=O)CC(NC(=O)C(C)NC(=O)C(NC(=O)OCc1ccccc1)C(C)C)C(=O)CF (stereo not drawn) [zVAD, benzyloxycarbonylvalyl-alanyl-aspartic acid (O-methyl)-fluoro-methylketone] (Cbz-Val-Ala-Asp(OMe)-CH2F; configuration not given here), the “growth suppression and death” value [3] is reported as “effectively induced growth suppression and death of BCBL1 cells”.

In the case of “EVVLFLLNVF (also: GST fusion; UniProt F5HEZ4 20-29, looked up, fragment) [DED1 α2 helix, α2 region of KSHV vFLIP amino acids 20-29; tested as mammalian GST fusion]”, the Atg3 binding [4] is reported as “individually sufficient for Atg3 binding”.

In the case of QTFLHWVYCMEN [DED2 α4 helix], the Atg3 binding [4] is reported as “individually sufficient for Atg3 binding”.

For “RRRQRRKKRGY-G (RRRQRRKKRGYG) [HIV-1 TAT, reference compound]”, the “cell death (in words)” value [5] was “no increase in autophagy nor cell death” and the “autophagy induction (GFP-LC3 puncta)” value [6] was “no increase in autophagy”.

For RRRQRRKKRGY-G-FVNLAAAVVE [K-α2m], the “cell death (in words)” value [5] was “no increase in autophagy nor cell death” and the “autophagy induction (GFP-LC3 puncta)” value [6] was “no increase in autophagy”.

For “RRRQRRKKRGY-G-FVNLLFLVVE (RRRQRRKKRGYGFVNLLFLVVE; not fully specified (some residues); also: retro-inverso D-amino acids) [K-α2]”, the “phosphorylation of p70S6K” value [7] was “marginal reduction”, the “phosphorylation of ribosomal protein S6” value [7] was “remained unaffected” and the LC3-II level [8] was “high amount of LC3-II”.

In the case of RRRQRRKKRGY-G-NEMCAAAHAATQ [K-α4m], the “cell death (in words)” value [5] is reported as “no increase in autophagy nor cell death” and the “autophagy induction (GFP-LC3 puncta)” value [6] is reported as “no increase in autophagy”.

For “RRRQRRKKRGY-G-NEMCYVWHLFTQ (RRRQRRKKRGYGNEMCYVWHLFTQ; not fully specified (some residues); also: retro-inverso D-amino acids) [K-α4]”, the “phosphorylation of p70S6K” value [7] was “marginal reduction”, the “phosphorylation of ribosomal protein S6” value [7] was “remained unaffected” and the LC3-II level [8] was “high amount of LC3-II”.

B1: Flag-HVS vFLIP (other)
chain: MDLKTTVLHITDSFTEEEMYCLLFLINGCIPRNCNAVKISDLIIETLSKSTQWDICLTQCLYVLRKIELLLNLFQVTKEDVKQSFFTQLQLETHVLTLVNVNNNLTAKDEKRLCFILDQFFPRNVVASSVILCVFSNMLCEMPVLECLCQLKKCLKQIGRSDLAKTV
B1: binds [9]; binds [10].

B2: HVS vFLIP: viral FLIP of Herpesvirus saimiri (protein)
chain: MDLKTTVLHITDSFTEEEMYCLLFLINGCIPRNCNAVKISDLIIETLSKSTQWDICLTQCLYVLRKIELLLNLFQVTKEDVKQSFFTQLQLETHVLTLVNVNNNLTAKDEKRLCFILDQFFPRNVVASSVILCVFSNMLCEMPVLECLCQLKKCLKQIGRSDLAKTV
modifications: Saimiriine herpesvirus 2
notes: viral FLIP of Herpesvirus saimiri
With B2 the “suppression of starvation- and rapamycin-induced autophagy (GFP-LC3 puncta)” value [11] was “strongly suppressed starvation- and rapamycin-induced autophagy; also recorded: had anti-autophagic activity”, the “processed LC3-II” value [12] was “little or no processed LC3-II” and the “Atg3 regions bound (Atg3 deletion mutants)” value [13] was “Atg3 binding patterns similar to KSHV vFLIP”. The Atg3 binding [4] was “interacted with Atg3 as efficiently as KSHV-vFLIP”.

B3: Flag-KSHV vFLIP DED2 (other)
chain: FSPYQLTVLHVDGELCARDIRSLIFLSKDTIGSRSTPQTFLHWVYCMENLDLLGPTDVDALMSMLRSLSRVDLQRQVQTLMGLHLSGPSHSQHYRHTP
notes: also called DED2 of KSHV vFLIP
B3: binds [10].

B4: Flag-KSHV vFLIP DED1 (other)
chain: MATYEVLCEVARKLGTDDREVVLFLLNVFIPQPTLAQLIGALRALKEEGRLTFPLLAECLFRAGRRDLLRDLLHLDPRFLERHLAGTMSY
notes: also called DED1 of KSHV vFLIP
B4: binds [10].
